In US20140017790A1, “CONTROL AGENT FOR CONTROLLING UNDIFFERENTIATED STATE AND USE THEREOF” (RIKEN, priority 2011, published 2014):

What was measured:
Format in all cases: cell-based
human iPS cells [1] = assay: phase-contrast morphology of human iPS cells with JAK or PI3K inhibitor; settings: 6 days
Experimental: As a JAK inhibitor, a JAK inhibitor I (Merck) was used. As PI3K inhibitor, the same LY294002 as used in Example 4 was used. Human iPS cells were cultured for 6 days under feeder conditions in the same manner as in the above item (1), except that not only the CCL2 but also the JAK inhibitor or the PI3K inhibitor further was added to the medium. In the medium, the concentration of the Jak inhibitor was set to 10 ng/ml, and the concentration of the PI3K inhibitor was set to 5 ng/ml.
Furthermore, as a control, the cells were cultured in the same manner as in the above using the following media, respectively: a medium containing bFGF instead of the CCL2 and containing DMSO (5 ng/ml) instead of the inhibitor; and a medium containing bFGF (5 ng/ml) instead of the CCL2 and containing the inhibitor.
The phase-contrast micrographs show the results obtained under the conditions of, from the above: the inhibitor not added (DMSO added); the JAK inhibitor added; and the PI3K inhibitor added.

human iPS cells [2] = assay: differentiation of EBs to myocardial cells, morphology and Tropomyosin immunostaining; settings: 10th day from the plating; CCL2(+)/LIF(+) or CCL2(-)/bFGF(+) 5 ng/ml
Source text: It has been reported that, in general, according to the spontaneous differentiation-inducing method used in the above item (1), differentiation into myocardial cells is more liable to occur. Thus, regarding the cells on the 10th day from the plating in the above item (1), differentiation into myocardial cells was examined.
The morphology of the cells was examined with a microscope. Furthermore, they were immunostained with a Tropomyosin, which is a marker for myocardial cells. Also, culture of the cells, observation of the morphology, and staining were carried out in the same manner as in the above using a medium to which bFGF (5 ng/ml) has been added instead of the CCL2 and LIF.
The photographs in FIG. 19 show the morphologies of the cells on the 10th day from the plating of EB. […] Furthermore, in FIGS. 19A and 19B, the photographs on the left show the cell morphologies, and the photographs on the right show the stained cells. In the black and white photographs of FIG. 19, the stained portions are seen as light gray.

human iPS cells [3] = assay: EB formation and spontaneous differentiation, cell morphology; settings: third day from the plating; iPS cells precultured 6 days with the substance
Experimental: Human iPS cells were cultured for 6 days under feeder conditions in the same manner as in Example 7. Thereafter, embryonic bodies (EBs) were produced. EB formation is known as a spontaneous differentiation-inducing method for inducing the differentiation of iPS cells. Specifically, first, a ROCK inhibitor (Y-27632, WAKO) was added to the culture solution being used for the culture of the human iPS cells so that the concentration thereof was […], and the human iPS cells were cultured for 1 hour under the conditions of 37° C. and 5% CO2. Then, the feeder cells used for the culture were dissociated with a human ES/iPS cell dissociation solution (CTK solution), and the human iPS cells were collected. Then, 1×10^6 of the human iPS cells were seeded in an ultra-low adhesion culture vessel, and cultured for 6 days in an EB preparation medium (DMEM/F12, Knockout SR, L-glutamine, NEAA (non-essential amino acid (GIBCO)), 2-ME, Pen/Strep). The medium was replaced every two days.
Next, spontaneous differentiation was induced. Specifically, the produced EBs were seeded in gelatin coated dishes so that each gelatin coated dish contained one EB. Each EB was cultured for 14 days in a medium (DMEM) containing 20% FBS, and then observed with a microscope. The medium was replaced every two days. The photographs in FIG. 18 show the cell morphology on the third day from the plating.

human iPS cells [4] = assay: culture of human iPS cells in feeder free media, EB plating, cell adhesion; settings: LIF not added, CCL2 500 ng/ml alone or bFGF 5 ng/ml alone
Source text: As undifferentiated cells, the same human iPS cells as used in Example 7 were used. As CCL2, the mouse recombinant CCL2 used in the item (1) of Example 2 was used. As feeder free media, the following three kinds of media were provided by adding or not adding the CCL2, LIF and bFGF to the medium for human stem cells used in Example 8. Specifically, the media used were as follows: the medium with CCL2 not added (−)/LIF not added (−)/bFGF added (+); the medium with CCL2 added (+)/LIF not added (−)/bFGF not added (−); and the medium with CCL2 added (+)/LIF added (+)/bFGF not added (−). In each medium, the concentration of the LIF was set to 50 units/ml, the concentration of the CCL2 was set to 500 ng/ml, and the concentration of the bFGF was set to 5 ng/ml. Then, the human iPS cells were cultured for 6 days using each medium, and EBs were produced. Thereafter, the thus-produced EBs were seeded in gelatin coated dishes so that each gelatin coated dish contained one EB, and cultured for 5 days in a medium (DMEM) containing 20% FBS.
The photographs in FIG. 20 show the cell morphologies of the EBs on the 5th day from the plating.

human iPS cells [5] = assay: quantitative RT-PCR of undifferentiated marker genes in human iPS cells under feeder conditions; settings: CCL2 500 ng/ml, 6 days, relative to bFGF 5 ng/ml
Experimental: (§1) A PrimeScript RT-PCR Kit (trade name, TAKARA BIO INC.), an ABI 7500 Fast real time PCR system (trade name, Applied BioSystems), and a SYBR (registered trademark) Premix Ex Taq (trade name, TAKARA BIO INC.) were used in accordance with their protocols. PCR was carried out by conducting 40 cycles of treatment with a treatment at 94° C. for 5 second and at 62.5° C. for 20 seconds as 1 cycle. The expression level of each gene was calculated by normalizing the relative amount of mRNA in the gene to Gapdh mRNA according to the 2^−ΔΔ^CT method (Thomse R, Solvsten C A, Linnet T E, et al., Analysis of qPCR data by converting exponentially related Ct values into linearly related XO values. J Bioinform Comput Biol 2010: 8: 885-900.).
The human iPS cells were used as undifferentiated cells, and human recombinant CCL2 (137-13011, WAKO, SEQ ID NO: 1) was used as the CCL2. The medium used was a medium for human stem cells (trade name “Primate ES medium”, ReproCELL Incorporated). To this medium, LIF was not added, and the CCL2 was added. The concentration of the CCL2 in the medium was set to 500 ng/ml. Under the above-described feeder conditions, the human iPS cells were cultured on the feeder cells SNL76/7 that produce LIF in the above-described medium. Then, 6 days after the start of the culture, the feeder cells were removed, and total RNAs were collected from the cultured human iPS cells. The undifferentiated marker genes were then subjected to the quantitative RT-PCR.
Also, as a negative control, the human iPS cells were cultured under the feeder conditions and the undifferentiated marker genes were subjected to quantitative RT-PCR in the same manner as in the above, except that bFGF (derived from human, WAKO) was added instead of the CCL2 so that the concentration thereof was 5 ng/ml. Thereafter, assuming that the expression level in the comparative example was 1, the relative value with respect to this value was calculated as the fold change in expression level.

mouse iPS cells = assay: siRNA knockdown and quantitative RT-PCR in mouse iPS cells
Experimental: as §1, with “885-900.). […]” for “885-900.).”
The Stealth siRNA was added so that the final concentration thereof per well was […]. Then, 24 hours after the transfection, total RNAs were extracted, and the expression levels of the undifferentiated marker genes and the Ccl2 gene in the mouse iPS cells were determined by the quantitative RT-PCR.
Also, as a negative control, the mouse iPS cells were subjected to transfection in the same manner as in the above, except that Stealth siRNA (trade name: Stealth RNAi (registered trademark) Negative Control Medium GC, Duplex-catalog number 12935-300, Invitrogen) was used, and the expressions of the undifferentiated marker genes were measured (n=3). […]

CC(C)(C)c1nc2c3cc[nH]c(=O)c3c3cc(F)ccc3c2[nH]1 [Jak inhibitor, reference compound]
undifferentiation potency, cell morphology (human iPS cells [1]; Jak inhibitor 10 ng/ml, both bFGF(+)/CCL2(-) and bFGF(-)/CCL2(+)): all the cells had been differentiated and many dead cells were observed

bFGF: bFGF (derived from human, WAKO), added instead of the CCL2 as negative control
cell morphology of EBs, differentiation into myocardial cells (human iPS cells [2]): most of them were epithelial cell-like cells
staining with Tropomyosin (marker for myocardial cells) (human iPS cells [2]): not stained
undifferentiation potency, cell morphology (human iPS cells [1]; inhibitor not added (DMSO added), bFGF(+)/CCL2(-) or bFGF(-)/CCL2(+)): most of the cells maintained the undifferentiation potency, but some of the cells were differentiated
morphology of EB after spontaneous differentiation-inducing culture (human iPS cells [3]): epithelial cell-like morphology
cell adhesion (human iPS cells [4]): not observed

human recombinant CCL2: human recombinant CCL2 (137-13011, WAKO, SEQ ID NO: 1)
expression of the KLF4 gene, fold change (human iPS cells [5]): about two-fold
expression of the Nanog gene, fold change (human iPS cells [5]): about two-fold
expression of the REX1 gene, fold change (human iPS cells [5]): about two-fold
expression of the STELLA gene, fold change (human iPS cells [5]): about two-fold

siRNA against the Ccl2 gene: Stealth siRNA (Invitrogen), sequence SEQ ID NO: 7 CAUUCACCAGCAAGAUGAUCCCAAU (commercial Stealth siRNA, chemistry not given here)
expressions of the undifferentiated marker genes (Klf4, Tbx3) after knockdown of the Ccl2 gene (mouse iPS cells; 24 hours after transfection, relative to negative control siRNA): decreased markedly

siRNA against the Klf4 gene: Stealth siRNA (Invitrogen), sequence SEQ ID NO: 8 CAAGUUUGUGCUGAAGGCGUCUCUG (commercial Stealth siRNA, chemistry not given here)
expression of the Tbx3 gene after knockdown of the Klf4 gene (mouse iPS cells; 24 hours, relative to negative control): decreased markedly
